“And” between values parts separate entries of the source, which are not always exact repeats. Equal entries are not always repeated. Toxic doses and inconclusive results are not listed. Cut-off read from the data, not from the text of the source: active = T/C of 150% or more; inactive = T/C below 125%.
System: L1210 leukemia ip in BDF1 mice, survival T/C
Assay: NCI In Vivo Anticancer Drug Screen. Data for tumor model L1210 Leukemia (intraperitoneal) in B6D2F1 (BDF1) mice
Details: endpoint: mean survival time, higher = longer survival
Method in brief: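 Antitumor effect is assessed in tumor-bearing animals. Survival in the compound arm is compared with a vehicle-dosed control arm and expressed as their quotient.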

[1] = dose: 100.0 mg/kg/injection, schedule: Q01DX001 (ip), vehicle: saline
[2] = dose: 200.0 mg/kg/injection, schedule: Q01DX001 (ip), vehicle: saline
[3] = dose: 400.0 mg/kg/injection, schedule: Q01DX001 (ip), vehicle: saline
[4] = dose: 100.0 mg/kg/injection, schedule: Q01DX009 (ip), vehicle: Klucel (hydroxypropylcellulose) (HPC)
[5] = dose: 200.0 mg/kg/injection, schedule: Q01DX009 (ip), vehicle: Klucel (hydroxypropylcellulose) (HPC)
[6] = dose: 400.0 mg/kg/injection, schedule: Q01DX009 (ip), vehicle: Klucel (hydroxypropylcellulose) (HPC)

Measured: T/C

CCOC(=O)c1ccnc2ccc(OC)cc12
inactive: dose: 100.0 mg/kg/injection, schedule: Q04DX002 (ip), vehicle: saline with Tween-80 91 % of control | dose: 200.0 mg/kg/injection, schedule: Q04DX002 (ip), vehicle: saline with Tween-80 100 % of control | dose: 400.0 mg/kg/injection, schedule: Q04DX002 (ip), vehicle: saline with Tween-80 104 % of control

CCN(CC)CC(=O)NCC(CCN1CCCCC1)(c1cccc2ccccc12)C(C)C (stereo not given)
inactive: dose: 25.0 mg/kg/injection, schedule: Q01DX009 (ip), vehicle: saline 101 % of control | dose: 50.0 mg/kg/injection, schedule: Q01DX009 (ip), vehicle: saline 115 % of control | dose: 100.0 mg/kg/injection, schedule: Q01DX009 (ip), vehicle: saline 112 % of control

CCCCOB(OCCCC)c1ccc(B(OCCCC)OCCCC)cc1
inactive: [1] 97 % of control | [2] 101 % of control | [3] 89 % of control

O=[N+]([O-])c1ccc(O)c(/C=N/N2CCN(/N=C/c3cc([N+](=O)[O-])ccc3O)CC2)c1
inactive: [1] 91 % of control | [2] 97 % of control | [3] 97 % of control

CC(=O)CCC(=O)O
inactive: dose: 1.56 mg/kg/injection, schedule: Q01DX Z (ip), vehicle: other 98 % of control | dose: 3.13 mg/kg/injection, schedule: Q01DX Z (ip), vehicle: other 96 % of control | dose: 6.25 mg/kg/injection, schedule: Q01DX Z (ip), vehicle: other 96 % of control | dose: 12.5 mg/kg/injection, schedule: Q01DX Z (ip), vehicle: other 95 % of control | dose: 25.0 mg/kg/injection, schedule: Q01DX Z (ip), vehicle: other 95 % of control | dose: 50.0 mg/kg/injection, schedule: Q01DX Z (ip), vehicle: other 98 % of control | dose: 100.0 mg/kg/injection, schedule: Q01DX Z (ip), vehicle: other 113 % of control | dose: 100.0 mg/kg/injection, schedule: Q04DX002 (ip), vehicle: saline 88 % of control | dose: 200.0 mg/kg/injection, schedule: Q01DX Z (ip), vehicle: other 96 % of control | dose: 200.0 mg/kg/injection, schedule: Q04DX002 (ip), vehicle: saline 100 % of control | dose: 400.0 mg/kg/injection, schedule: Q04DX002 (ip), vehicle: saline 118 % of control

COc1cc2c(cc1O)C(=O)CCC(C(=O)O)=C2
inactive: dose: 50.0 mg/kg/injection, schedule: Q01DX009 (ip), vehicle: saline with Tween-80 93 % of control | dose: 100.0 mg/kg/injection, schedule: Q01DX009 (ip), vehicle: saline with Tween-80 107 % of control | dose: 200.0 mg/kg/injection, schedule: Q01DX009 (ip), vehicle: saline with Tween-80 96 % of control

N#CC1(O)C(Cl)(Cl)CCCC1(Cl)Cl
inactive: dose: 6.25 mg/kg/injection, schedule: Q01DX009 (ip), vehicle: saline with Tween-80 91 % of control | dose: 12.5 mg/kg/injection, schedule: Q01DX009 (ip), vehicle: saline with Tween-80 97 % of control | dose: 25.0 mg/kg/injection, schedule: Q01DX009 (ip), vehicle: saline with Tween-80 94 % of control

c1ccc(-c2ccc(-c3cnc(-c4ccccc4)[nH]3)cc2)cc1
inactive: dose: 100.0 mg/kg/injection, schedule: Q01DX001 (ip), vehicle: saline with Tween-80 95 % of control | dose: 200.0 mg/kg/injection, schedule: Q01DX001 (ip), vehicle: saline with Tween-80 92 % of control | dose: 400.0 mg/kg/injection, schedule: Q01DX001 (ip), vehicle: saline with Tween-80 92 % of control

Cc1cc(C)nc(/N=N/c2nc(C)cc(C)n2)n1
inactive: dose: 55.0 mg/kg/injection, schedule: Q01DX Z (ip), vehicle: saline 95 % of control | dose: 83.0 mg/kg/injection, schedule: Q01DX Z (ip), vehicle: saline 91 % of control | dose: 125.0 mg/kg/injection, schedule: Q01DX Z (ip), vehicle: saline 103 % of control

O=[N+]([O-])c1ccc(N=NN(CCF)CCF)cc1
inactive: dose: 6.25 mg/kg/injection, schedule: Q01DX Z (ip), vehicle: saline 93 % of control | dose: 10.0 mg/kg/injection, schedule: Q01DX Z (ip), vehicle: saline 97 % of control | dose: 30.0 mg/kg/injection, schedule: Q01DX Z (ip), vehicle: saline 108 % of control

CCOc1ccc(N=C=S)cc1
inactive: [1] 93 % of control | [2] 98 % of control | [3] 102 % of control

Nc1c(Cl)cc2c(c1Br)C(=O)c1ccccc1C2=O
inactive: dose: 100.0 mg/kg/injection, schedule: Q01DX001 (ip), vehicle: Klucel (hydroxypropylcellulose) (HPC) 117 % of control | dose: 400.0 mg/kg/injection, schedule: Q01DX001 (ip), vehicle: Klucel (hydroxypropylcellulose) (HPC) 90 % of control

COC1(c2ccccc2)Oc2ccccc2C(=O)C1(O)C[N+](=O)[O-] (stereo not given)
inactive: dose: 50.0 mg/kg/injection, schedule: Q01DX001 (ip), vehicle: saline 95 % of control | [1] 89 % of control | [2] 95 % of control | [3] 101 % of control

COc1cc([N+](=O)[O-])ccc1C
inactive: dose: 100.0 mg/kg/injection, schedule: Q01DX009 (ip), vehicle: other 111 % of control | dose: 100.0 mg/kg/injection, schedule: Q04DX003 (ip), vehicle: other 97 % of control | dose: 200.0 mg/kg/injection, schedule: Q01DX009 (ip), vehicle: other 98 % of control | dose: 200.0 mg/kg/injection, schedule: Q04DX003 (ip), vehicle: other 90 % of control | dose: 400.0 mg/kg/injection, schedule: Q01DX009 (ip), vehicle: other 104 % of control | dose: 400.0 mg/kg/injection, schedule: Q04DX003 (ip), vehicle: other 88 % of control

c1ccc(N=P(c2ccccc2)(c2ccccc2)c2ccccc2)cc1
inactive: [1] 94 % of control | [2] 94 % of control

CC(=O)OC1c2ccccc2C(=O)C1(OC(C)=O)c1ccccc1 (stereo not given)
inactive: [4] 101 % of control | dose: 100.0 mg/kg/injection, schedule: Q04DX003 (ip), vehicle: Klucel (hydroxypropylcellulose) (HPC) 97 % of control | [5] 107 % of control | dose: 200.0 mg/kg/injection, schedule: Q04DX003 (ip), vehicle: Klucel (hydroxypropylcellulose) (HPC) 100 % of control | [6] 101 % of control | dose: 400.0 mg/kg/injection, schedule: Q04DX003 (ip), vehicle: Klucel (hydroxypropylcellulose) (HPC) 102 % of control

Cc1cn(C2CCCO2)c(=O)nc1NO (stereo not given)
inactive: dose: 100.0 mg/kg/injection, schedule: Q01DX001 (ip), vehicle: carboxymethylcellulose (CMC) 104 % of control | dose: 200.0 mg/kg/injection, schedule: Q01DX001 (ip), vehicle: carboxymethylcellulose (CMC) 95 % of control | dose: 400.0 mg/kg/injection, schedule: Q01DX001 (ip), vehicle: carboxymethylcellulose (CMC) 98 % of control

c1ccc2c(c1)ccc1c[n+]3c(ccc4ccccc43)cc12
inactive: dose: 25.0 mg/kg/injection, schedule: Q01DX001 (ip), vehicle: carboxymethylcellulose (CMC) 104 % of control | dose: 50.0 mg/kg/injection, schedule: Q01DX001 (ip), vehicle: carboxymethylcellulose (CMC) 108 % of control

N#CCC[P+](c1ccccc1)(c1ccccc1)c1ccccc1
inactive: dose: 5.0 mg/kg/injection, schedule: Q01DX001 (ip), vehicle: saline 102 % of control | dose: 10.0 mg/kg/injection, schedule: Q01DX001 (ip), vehicle: saline 102 % of control | dose: 20.0 mg/kg/injection, schedule: Q01DX001 (ip), vehicle: saline 102 % of control | dose: 40.0 mg/kg/injection, schedule: Q01DX001 (ip), vehicle: saline 102 % of control | dose: 80.0 mg/kg/injection, schedule: Q01DX001 (ip), vehicle: saline 100 % of control | [1] 109 % of control | [2] 108 % of control

CC(=O)c1cccc(NC(=O)Nc2cccc(C)n2)c1
inactive: [4] 106 % of control | [5] 102 % of control | [6] 101 % of control

O=C(CCCCC(=O)N/N=C\c1ccccc1O)N/N=C\c1ccccc1O
inactive: dose: 100.0 mg/kg/injection, schedule: Q04DX003 (ip), vehicle: saline with Tween-80 87 % of control | dose: 200.0 mg/kg/injection, schedule: Q04DX003 (ip), vehicle: saline with Tween-80 89 % of control | dose: 400.0 mg/kg/injection, schedule: Q04DX003 (ip), vehicle: saline with Tween-80 87 % of control

O=C(O)C(O)Cc1ccccc1 (stereo not given)
inactive: dose: 90.0 mg/kg/injection, schedule: Q04DX003 (ip), vehicle: saline 105 % of control | dose: 100.0 mg/kg/injection, schedule: Q04DX003 (ip), vehicle: saline 100 % of control and 107 % of control | dose: 135.0 mg/kg/injection, schedule: Q04DX003 (ip), vehicle: saline 100 % of control | dose: 200.0 mg/kg/injection, schedule: Q04DX003 (ip), vehicle: saline 102 % of control and 107 % of control | dose: 300.0 mg/kg/injection, schedule: Q04DX003 (ip), vehicle: saline 92 % of control | dose: 400.0 mg/kg/injection, schedule: Q04DX003 (ip), vehicle: saline 106 % of control

Reference: PubChem BioAssay AID248 (DTP/NCI, 2004)
